Like-named read-outs stand apart in the source and are kept apart here.
What was measured:
[1] = test system: pBR322 plasmid, wheat germ topoisomerase I; assay: DNA unwinding assay; type: biochemical; details: for DNA intercalation: relaxed pBR322 plasmid plus topoisomerase I (Fig. 2A); for relaxation of supercoiled plasmid through the action of topoisomerase I: supercoiled pBR322 plasmid, bolalipid present (Fig. 2B)
Method: A DNA unwinding assay kit (Inspiralis Limited, Norwich, UK) consists of wheat germ topoisomerase I assay buffer (50 mM Tris HCl [pH 7.9], 1 mM EDTA, 1 mM dithiothreitol [DTT], 20% [vol/vol] glycerol, 50 mM NaCl) dilution buffer (50 mM Tris HCl [pH 7.9], 1 mM EDTA, 1 mM DTT, 50% [vol/vol] glycerol, 500 mM NaCl), wheat germ topoisomerase I (5 U/μL), supercoiled plasmid pBR322 (1 μg/μL), and relaxed plasmid pBR322 (1 μg/μL). For the experiments, 2× DNA loading buffer containing 40% (wt/vol) sucrose, 100 mM Tris-HCl (pH 8), 1 mM EDTA, and 0.5 mg/mL bromophenol blue was prepared. The enzyme was diluted 1/5 with dilution buffer before being used in the assay. For the assay, 3 mM stock solutions in methanol of the compounds to be tested were prepared. An appropriate number of 1.5-mL Eppendorf tubes were filled with 25 μL of a mix consisting of assay buffer (15 μL of buffer per sample), supercoiled or relaxed pBR322 (0.5 μg/assay), and ultrapure water. In the first two tubes, 1 μL of methanol was added to test the effect of the solvent on both the plasmid and the enzyme. Subsequently, 1 μL of the test compounds was added to the remaining tubes, and the tubes briefly vortexed and incubated at room temperature for 5 min. After that, 2 μL of dilution buffer was added in the first tube, whereas 2 μL of enzyme diluted solution was added to the remaining tubes. The tubes were gently vortexed and incubated for 30 min at 37°C in a water bath. After this time, the reaction was stopped by adding 20 μL of water and 50 μL of water-saturated butanol to each tube. The tubes were vortexed and centrifuged for 1 min at 14,800 rpm. The lower aqueous layer of each tube was removed and transferred to a new tube containing 30 μL of chloroform-isoamyl alcohol (24/1) and 50 μL of loading buffer. The tubes were briefly vortexed and centrifuged for 1 min. Twenty microliters of the upper layer of each tube was loaded onto a 1% (wt/vol) agarose gel, and the gel was run at 80 V for approximately 4 h in Tris-acetate-EDTA buffer (40 mM Tris acetate and 1 mM EDTA). Subsequently, the gel was stained with ethidium bromide (1 μg/mL) for 15 min, briefly destained (5 to 10 min) in water, and visualized with a Multi-Doc Imaging M-26X UVP transilluminator.

[2] = Patch-clamp conductance in model membranes; details: bilayers composed of DPhPG
Method: Giant unilamellar vesicles (GUVs) composed of DiPhytanoly PhosphatidylGlycerol (DPhPG) were prepared in the presence of 1 M sorbitol by the electroformation method in an indium-tin oxide (ITO)-coated glass chamber connected to the Nanion Vesicle Prep Pro setup (Nanion Technologies GmbH, Munich, Germany) using a 3-V peak-to-peak AC voltage at a frequency of 5 Hz for 140 min at 37°C ([30][–][32]). Bilayers were formed by adding the GUV solution to a buffer containing 250 mM KCl, 50 mM MgCl2, and 10 mM HEPES (pH 7.00) onto an aperture in a borosilicate chip (Port-a-Patch; Nanion Technologies) and applying 7,000 to 9,000 Pa negative pressure, resulting in a solvent-free membrane with a resistance in the GΩ range. […] After formation, a small amount of bolalipid stock solution (in water) was added to 50 μL of buffer solution in order to obtain its active concentration. All the experiments were carried out with a positive holding potential of 50 mV. […] For all the experiments, a minimum of 6 concordant repeats were done. Current traces were recorded at a sampling rate of 50 kHz using an EPC-10 amplifier from HEKA Elektronik (Lambrecht, Germany). The system was computer controlled by PatchControl software (Nanion) and GePulse (Michael Pusch, Genoa, Italy [http://users.ge.ibf.cnr.it/pusch/software-mik.htm]). […]

Dynamic light scattering = type: physicochemical; details: 0.36 mM in water
Method: (§1) Stock solutions of bolalipids were prepared by dispersing the powder in ultrapure water, then stirring vigorously by vortexing, and sonicating in a 40°C bath sonicator for 20 min. The concentration of each stock solution corresponds to the highest solubility achieved in water for each bolalipid, using the method described above. DLS experiments were performed on a Malvern Zetasizer Nano (Malvern Instruments, Worcestershire, UK) in back-scattering mode at 20°C. There were three independent measurements of each sample and 12 runs for each measurement, with 10 s taken for each run. The attenuator index and measurement position were automatically adjusted. Fifty microliters of each sample was transferred into polystyrene semi-microcuvettes for determination of UV and visible wavelengths (Sarstedt).

M. tuberculosis Bleupan [3] = assay: Selectivity index (toxicity/potency); type: cell-based, Mycobacterium tuberculosis; details: ratio of average toxicity (HEK293 and HeLa) to potency
Source text: TABLE 3 Selectivity indices of bolaamphiphiles | column: Selectivity of^a: / 12-bis-THA Cl2; Selectivity of^a: / Dequalinium; Selectivity of^a: / Penta-bola; Selectivity of^a: / Octa-bola; Selectivity of^a: / Octa-C8; Selectivity of^a: / Octa-C6

M. tuberculosis Bleupan [4] = type: in vivo, Galleria mellonella
[5] = Maximum solubility in water; type: physicochemical; details: ultrapure water, 40 °C, thermodynamic from solid
Method: as §1

Row | Structure (SMILES) | DNA intercalation [1] | relaxation of supercoiled plasmid through the action of topoisomerase I [1] | concentration required to induce any conductance [2] | nanoparticle formation (DLS) (Dynamic light scattering) | Selectivity index (M. tuberculosis Bleupan [3]) | survival (M. tuberculosis Bleupan [4]; 0.1 mg/kg) | survival (M. tuberculosis Bleupan [4]; higher or lower doses than 0.1 mg/kg) | infected larvae rescued (M. tuberculosis Bleupan [4]; 1 mg/kg) | solubility at 20 min [5]
1 | Nc1c2c([n+](CCCCCCCCCCCC[n+]3c4c(c(N)c5ccccc53)CCCC4)c3ccccc13)CCCC2 [12-bis-THA Cl2, 12,12′-(Dodecane-1,12-diyl)-bis-(9-amino-1,2,3,4-tetrahydroacridinium) chloride] | intercalators | not observed | 90 µM | to some extent |  |  |  |  | 
2 | Cc1cc(N)c2ccccc2[n+]1CCCCCCCCCC[n+]1c(C)cc(N)c2ccccc21 [Dequalinium, dequalinium chloride, reference compound] | intercalators | not observed | 90 µM | readily form nanoparticles | 6.35 | lower survival | indifferent |  | 
3 | Nc1c2c([n+](CCCCCCCCCCCC[n+]3c4c(c(N)c5ccccc53)CCCCCC4)c3ccccc13)CCCCCC2 [Octa-bola] | intercalation is reduced if not eliminated | not observed |  | readily form nanoparticles | 17.3 |  |  | about half | 360 µM
4 | Nc1c2c([n+](CCCCCCCCCCCC[n+]3c4c(c(N)c5ccccc53)CCC4)c3ccccc13)CCC2 [Penta-bola] | intercalators | not observed |  | to some extent |  |  |  |  | 
5 | Cc1c(N)c2ccccc2[n+](CCCCCCCCCCCC[n+]2c(C)c(C)c(N)c3ccccc32)c1C [Quino-bola] | intercalators | not observed |  |  |  |  |  |  | 

From article PMC9942557, “Bolaamphiphile Analogues of 12-bis-THA Cl2 Are Potent Antimicrobial Therapeutics with Distinct Mechanisms of Action against Bacterial, Mycobacterial, and Fungal Pathogens” (mSphere, 2022)
